Experimental data published in ChEMBL document CHEMBL1155543 (Bioorg Med Chem Lett, 2010).
pKi: −log10 of the molar value.

Assays:
Carbonic anhydrase 3 = Carbonic anhydrase 3 (Homo sapiens, UniProt P07451)
Carbonic anhydrase 4 = Carbonic anhydrase 4 (Homo sapiens, UniProt P22748)
[1] = target: Carbonic anhydrase 5A, mitochondrial (Homo sapiens, UniProt P35218)
[2] = target: Carbonic anhydrase 5B, mitochondrial (Homo sapiens, UniProt Q9Y2D0)
Carbonic anhydrase 6 = Carbonic anhydrase 6 (Homo sapiens, UniProt P23280)
Carbonic anhydrase 7 = Carbonic anhydrase 7 (Homo sapiens, UniProt P43166)
Carbonic anhydrase 12 = Carbonic anhydrase 12 (Homo sapiens, UniProt O43570)
Carbonic anhydrase 13 = Carbonic anhydrase 13 (Mus musculus, UniProt Q9D6N1)
Carbonic anhydrase 14 = Carbonic anhydrase 14 (Homo sapiens, UniProt Q9ULX7)
Carbonic anhydrase 15 = target: T1, Carbonic anhydrase 15 (Mus musculus, UniProt Q99N23)
T1 sequence (Q99N23 whole entry): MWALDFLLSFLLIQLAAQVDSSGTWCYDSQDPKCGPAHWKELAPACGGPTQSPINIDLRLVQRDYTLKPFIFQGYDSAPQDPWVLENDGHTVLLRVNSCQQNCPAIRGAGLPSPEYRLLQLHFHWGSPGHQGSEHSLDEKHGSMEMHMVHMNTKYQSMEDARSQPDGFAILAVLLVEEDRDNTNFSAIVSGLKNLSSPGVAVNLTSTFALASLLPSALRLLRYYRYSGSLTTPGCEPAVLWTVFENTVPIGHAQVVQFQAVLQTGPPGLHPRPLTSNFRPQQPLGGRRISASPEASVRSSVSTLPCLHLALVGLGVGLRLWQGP

Carbonic anhydrase 3, sequence (P07451 whole entry): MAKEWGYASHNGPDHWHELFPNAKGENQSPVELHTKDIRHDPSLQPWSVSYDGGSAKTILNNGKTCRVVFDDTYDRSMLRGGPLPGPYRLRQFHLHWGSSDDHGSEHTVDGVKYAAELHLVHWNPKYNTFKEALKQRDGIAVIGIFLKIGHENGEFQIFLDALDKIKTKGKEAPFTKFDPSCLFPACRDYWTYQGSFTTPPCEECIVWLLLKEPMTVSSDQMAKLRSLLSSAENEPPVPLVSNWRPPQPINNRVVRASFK
Carbonic anhydrase 5A, mitochondrial, sequence (P35218 whole entry): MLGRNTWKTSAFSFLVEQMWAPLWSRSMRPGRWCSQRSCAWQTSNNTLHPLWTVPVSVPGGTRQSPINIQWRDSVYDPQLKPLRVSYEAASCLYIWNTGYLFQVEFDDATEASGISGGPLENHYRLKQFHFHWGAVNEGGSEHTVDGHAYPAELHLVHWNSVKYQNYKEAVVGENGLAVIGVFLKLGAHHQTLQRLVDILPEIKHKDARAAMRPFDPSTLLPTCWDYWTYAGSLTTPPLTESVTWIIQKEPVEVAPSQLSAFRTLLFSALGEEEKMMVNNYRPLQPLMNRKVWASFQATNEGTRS
Carbonic anhydrase 12, sequence (O43570 whole entry): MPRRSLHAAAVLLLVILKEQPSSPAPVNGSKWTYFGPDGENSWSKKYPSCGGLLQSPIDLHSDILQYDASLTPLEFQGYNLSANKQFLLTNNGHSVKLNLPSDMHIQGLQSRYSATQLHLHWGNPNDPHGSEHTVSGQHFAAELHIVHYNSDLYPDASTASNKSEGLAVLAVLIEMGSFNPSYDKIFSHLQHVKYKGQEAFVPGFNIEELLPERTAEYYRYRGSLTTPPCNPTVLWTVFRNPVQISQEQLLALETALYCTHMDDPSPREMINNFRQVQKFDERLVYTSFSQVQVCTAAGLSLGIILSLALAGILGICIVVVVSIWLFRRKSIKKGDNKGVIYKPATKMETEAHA
Carbonic anhydrase 4, sequence (P22748 whole entry): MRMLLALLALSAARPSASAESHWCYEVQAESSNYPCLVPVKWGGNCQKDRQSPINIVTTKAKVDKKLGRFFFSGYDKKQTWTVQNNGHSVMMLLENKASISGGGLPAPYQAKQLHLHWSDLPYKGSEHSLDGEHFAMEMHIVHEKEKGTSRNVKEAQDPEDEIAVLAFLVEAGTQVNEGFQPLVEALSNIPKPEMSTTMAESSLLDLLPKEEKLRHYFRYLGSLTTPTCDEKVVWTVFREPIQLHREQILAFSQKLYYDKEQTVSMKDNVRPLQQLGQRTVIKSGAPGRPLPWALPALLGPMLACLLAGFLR
Carbonic anhydrase 5B, mitochondrial, sequence (Q9Y2D0 whole entry): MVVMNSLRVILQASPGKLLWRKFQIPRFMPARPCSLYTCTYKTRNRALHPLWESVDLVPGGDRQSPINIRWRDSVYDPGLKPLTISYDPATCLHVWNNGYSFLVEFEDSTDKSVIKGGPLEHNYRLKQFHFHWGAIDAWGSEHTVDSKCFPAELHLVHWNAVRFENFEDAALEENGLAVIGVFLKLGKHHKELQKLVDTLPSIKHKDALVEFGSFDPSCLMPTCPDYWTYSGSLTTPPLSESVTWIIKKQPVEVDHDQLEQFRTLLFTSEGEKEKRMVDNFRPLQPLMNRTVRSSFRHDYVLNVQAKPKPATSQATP
Carbonic anhydrase 14, sequence (Q9ULX7 whole entry): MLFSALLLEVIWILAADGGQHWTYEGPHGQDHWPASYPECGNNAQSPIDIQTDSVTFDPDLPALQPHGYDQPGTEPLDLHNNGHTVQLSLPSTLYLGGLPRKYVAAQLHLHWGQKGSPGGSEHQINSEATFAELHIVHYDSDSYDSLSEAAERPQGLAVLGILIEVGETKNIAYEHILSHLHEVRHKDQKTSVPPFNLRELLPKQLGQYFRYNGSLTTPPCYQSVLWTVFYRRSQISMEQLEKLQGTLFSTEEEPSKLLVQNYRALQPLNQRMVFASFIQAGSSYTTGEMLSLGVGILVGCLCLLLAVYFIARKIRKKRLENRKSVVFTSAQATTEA
Carbonic anhydrase 13, sequence (Q9D6N1 whole entry): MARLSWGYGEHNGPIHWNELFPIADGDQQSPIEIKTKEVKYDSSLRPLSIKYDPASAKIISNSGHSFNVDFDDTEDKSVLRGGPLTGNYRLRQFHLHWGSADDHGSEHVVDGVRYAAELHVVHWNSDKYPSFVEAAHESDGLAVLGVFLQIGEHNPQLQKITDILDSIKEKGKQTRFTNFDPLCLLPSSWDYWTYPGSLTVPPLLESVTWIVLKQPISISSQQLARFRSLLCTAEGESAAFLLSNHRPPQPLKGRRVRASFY
Carbonic anhydrase 6, sequence (P23280 whole entry): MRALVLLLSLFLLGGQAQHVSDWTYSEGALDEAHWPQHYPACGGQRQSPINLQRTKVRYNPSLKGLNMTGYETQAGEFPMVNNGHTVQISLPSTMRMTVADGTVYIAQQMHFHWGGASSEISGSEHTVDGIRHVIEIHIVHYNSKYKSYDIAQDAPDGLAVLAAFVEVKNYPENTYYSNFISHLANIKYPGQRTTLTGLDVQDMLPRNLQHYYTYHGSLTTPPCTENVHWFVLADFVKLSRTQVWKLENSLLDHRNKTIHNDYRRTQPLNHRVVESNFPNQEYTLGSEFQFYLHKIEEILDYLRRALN
Carbonic anhydrase 7, sequence (P43166 whole entry): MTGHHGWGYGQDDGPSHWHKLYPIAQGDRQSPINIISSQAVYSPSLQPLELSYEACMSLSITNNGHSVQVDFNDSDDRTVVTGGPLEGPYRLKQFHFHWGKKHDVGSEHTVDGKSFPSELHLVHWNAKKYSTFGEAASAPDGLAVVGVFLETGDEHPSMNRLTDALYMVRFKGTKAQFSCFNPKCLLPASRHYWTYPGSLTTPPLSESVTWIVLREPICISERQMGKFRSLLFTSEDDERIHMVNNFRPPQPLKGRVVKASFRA

Structure (SMILES) | pKi (Carbonic anhydrase 3) | pKi (Carbonic anhydrase 4) | pKi [1] | pKi [2] | pKi (Carbonic anhydrase 6) | pKi (Carbonic anhydrase 7) | pKi (Carbonic anhydrase 12) | pKi (Carbonic anhydrase 13) | pKi (Carbonic anhydrase 14) | pKi (Carbonic anhydrase 15)
CC1(C)OB(c2ccc(NS(N)(=O)=O)cc2)OC1(C)C | 5.06 | 5.06 | 7.06 | 7.12 | 6.13 | 7.08 | 8.05 | 6.00 | 8.15 | 7.05
NS(N)(=O)=O [SULFAMIDE] | 2.96 |  |  |  |  |  |  |  |  | 
CC1(C)O[C@@H]2[C@@H](CO[C@@]3(CNS(N)(=O)=O)OC(C)(C)O[C@@H]23)O1 | 2.40 |  |  |  |  |  |  |  |  | 
